Assay results as given in ChEMBL document CHEMBL1143187, “Synthesis of and evaluation of lipid A modification by 4-substituted 4-deoxy arabinose analogs as potential inhibitors of bacterial polymyxin resistance” (Bioorg Med Chem Lett, 2008).
The source made the active and inactive calls. The rule behind the calls is not given here.

Key:
[1] = tested on: Escherichia coli; test: Inhibition of Escherichia coli ArnA upto 100 uM
[2] = tested on: Escherichia coli; test: Inhibition of Escherichia coli ArnB upto 100 uM
[3] = target: Undecaprenyl phosphate-alpha-4-amino-4-deoxy-L-arabinose arabinosyl transferase (Salmonella typhimurium (strain LT2 / SGSC1412 / ATCC 700720)) (UniProt O52327); test: Inhibition of PmrK/ArnT in Salmonella Typhimurium JSG435 membranes assessed as effect on transfer of aminoarabinose tp lipid A; conditions: Salmonella enterica subsp. enterica serovar Typhimurium

With COP(=O)(N[C@H]1CO[C@H](OP(=O)(OCc2ccccc2)OCc2ccccc2)[C@H](OC(C)=O)[C@H]1OC(C)=O)OC the Activity [1] was “Active” and the Activity [2] was “Active”.

For CC(=O)OC1OC[C@H](N=[N+]=[N-])[C@H](OC(C)=O)[C@H]1OC(C)=O (stereo partly drawn), the Activity [1] was “Active”, the Activity [2] was “Active” and the Activity [3] was “Active”.

In the case of CCCCCCCCN.CCOP(=O)(Cc1ccccc1)N[C@H]1CO[C@H](OP(=O)(O)OP(=O)(O)OC[C@H]2O[C@@H](n3ccc(=O)[nH]c3=O)[C@H](O)[C@@H]2O)[C@H](OC(C)=O)[C@H]1OC(C)=O (stereo partly drawn), the Activity [1] was “Active” and the Activity [2] was “Active”.

For CC(=O)O[C@@H]1[C@@H](OC(C)=O)[C@@H](OP(=O)(O)OP(=O)(O)OC[C@H]2O[C@@H](n3ccc(=O)[nH]c3=O)[C@H](O)[C@@H]2O)OC[C@@H]1N=[N+]=[N-].CCCCCCCCCN, the Activity [1] was “Active” and the Activity [2] was “Active”.

COP(=O)(N[C@H]1CO[C@H](OP(=O)(O)O)[C@H](OC(C)=O)[C@H]1OC(C)=O)OC was tested, and the Activity [1] was “Active” and the Activity [2] was “Active”.

For CC(=O)O[C@@H]1[C@@H](OC(C)=O)[C@@H](OP(=O)(O)O)OC[C@@H]1N=[N+]=[N-], the Activity [1] was “Active” and the Activity [2] was “Active”.
